Results from patent publication US20230174571A1, “METHOD OF TREATING SHIP1-MEDIATED DISEASES USING PELOROL DERIVATIVES” (Zebrapeutics Inc., priority 2020, published 2023).

Tests used:
[1] = target: T1, SHIP1 and STAT3 (Mus musculus, UniProt Q9ES52); assay: Immunofluorescence of SHIP1 and STAT3 subcellular localization in peritoneal macrophages; assay type: cell-based; details: for membrane association of SHIP1 and STAT3 / nuclear localization of SHIP1 and STAT3: wild-type perimacs, 100 ng/ml IL10 or 20 μM I-2; for membrane association of SHIP1 and STAT3: 2 min; for nuclear localization of SHIP1 and STAT3: 20 min
T1 construct: expressed in transfected cells; host or cells: J17 (SHIP1-/- mouse BMDM-derived line), lentiviral transduction
T1 sequence (Q9ES52 1-1191): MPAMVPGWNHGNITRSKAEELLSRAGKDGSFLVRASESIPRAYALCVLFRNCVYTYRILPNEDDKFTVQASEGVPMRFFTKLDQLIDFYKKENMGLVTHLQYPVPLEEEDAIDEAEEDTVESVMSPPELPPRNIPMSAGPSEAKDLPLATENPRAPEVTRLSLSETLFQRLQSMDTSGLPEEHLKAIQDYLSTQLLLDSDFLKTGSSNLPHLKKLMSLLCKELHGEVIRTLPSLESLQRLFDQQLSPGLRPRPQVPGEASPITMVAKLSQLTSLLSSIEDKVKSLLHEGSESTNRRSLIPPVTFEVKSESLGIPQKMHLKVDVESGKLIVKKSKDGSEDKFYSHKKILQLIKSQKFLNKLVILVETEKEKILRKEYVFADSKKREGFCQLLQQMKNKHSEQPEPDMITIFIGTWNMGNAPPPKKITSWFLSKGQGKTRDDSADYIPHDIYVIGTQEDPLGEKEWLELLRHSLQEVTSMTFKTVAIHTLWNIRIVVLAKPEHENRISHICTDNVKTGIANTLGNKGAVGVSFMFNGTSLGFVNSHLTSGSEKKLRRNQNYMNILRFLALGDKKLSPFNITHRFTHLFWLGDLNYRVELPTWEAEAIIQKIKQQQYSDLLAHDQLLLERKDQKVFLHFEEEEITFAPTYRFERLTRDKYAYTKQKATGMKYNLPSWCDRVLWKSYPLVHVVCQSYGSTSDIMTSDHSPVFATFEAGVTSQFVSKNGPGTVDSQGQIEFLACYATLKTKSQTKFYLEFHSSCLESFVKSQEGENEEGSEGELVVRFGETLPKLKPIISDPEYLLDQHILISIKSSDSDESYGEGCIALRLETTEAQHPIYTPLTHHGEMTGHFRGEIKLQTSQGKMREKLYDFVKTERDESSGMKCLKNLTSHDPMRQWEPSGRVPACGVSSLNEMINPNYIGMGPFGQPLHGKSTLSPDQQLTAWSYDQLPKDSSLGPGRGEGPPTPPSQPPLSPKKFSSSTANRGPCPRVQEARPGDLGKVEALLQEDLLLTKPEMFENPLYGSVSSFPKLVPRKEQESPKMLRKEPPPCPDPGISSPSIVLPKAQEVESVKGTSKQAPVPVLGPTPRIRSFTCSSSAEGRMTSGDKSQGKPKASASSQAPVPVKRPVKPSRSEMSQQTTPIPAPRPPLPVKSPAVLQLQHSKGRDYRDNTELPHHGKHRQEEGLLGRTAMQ
Method: Isolation of mouse peritoneal macrophages. Primary peritoneal macrophages (perimacs) were isolated from mice by peritoneal lavage with 3 ml of sterile Phosphate Buffered Saline (PBS) (Thermo Fisher Scientific, Nepean, ON). Perimacs were collected and transferred to Mac media.
Immunofluorescence. Perimacs were seeded at 3×10^5 cells per well in 18-well Ibidi p-Slides (Ibidi GmbH, Martinsried, Germany) and allowed to adhere for 3 hours before washing with PBS to remove non-adherent cells. CD8+ T cells were seeded at 2×10^6 cells in 12-well tissue culture plates. Cells were stimulated with either 100 ng/ml IL10 or 20 μM compound I-2 for 2 or 20 minutes followed by 3×PBS washes and fixing of cells in 4% paraformaldehyde for 15 minutes at room temperature. Cells were incubated with anti-mouse CD16/CD32 Fc Block (BD Pharmingen) for 1 hour followed by an overnight incubation at 4° C. with either anti-SHIP1 antibody (P1C1) (Santa Cruz Biotechnology) or anti-STAT3 antibody (9D8) (ThermoFisher Scientific). Cells were then incubated with anti-mouse IgG (H+L)-Alexa Fluor 660 secondary antibody (ThermoFisher Scientific) for 1 hour, followed by, for perimacs, anti-CD11b-FITC antibody (BD Pharmingen) for 30 minutes. CD8+ T cells were mounted onto 18-well Ibidi p-Slides prior to confocal microscopy and cells were stored in Ibidi Mounting Media supplemented with ProLong Gold antifade reagent with DAPI (Molecular Probes, Life Technologies). Cells were imaged on a Leica SP5II on DM6000 confocal microscope with a 63×/1.4-0.6 Oil PL APO objective using 405, 488 and 633 nm laser lines for excitation. Final images were scanned sequentially acquiring eight Z-stacks with a frame-average of four. Co-localization analysis was performed using ImageJ software by first combining individual z-stack confocal images then performing deconvolution and co-localization using CUDA deconvolution and JACoP plugins respectively. Pearson's coefficient values were produced as a measurement of the degree of overlap between SHIP1 or STAT3 with CD11b (for Perimacs) or DAPI.

[2] = target: T1, SHIP1 and STAT3; assay: In vitro pull down assay of His6-SHIP1 with STAT3; assay type: cell-based; details: J17 His6-SHIP1 cells; 100 ng/ml IL10 or IL6, 20 μM compound I-2; 5 minutes
Method: In vitro pull down assay. J17 His6-SHIP1 and Y190F cells were seeded at 2×10^6 cells per well in a 6-well plate. After overnight incubation, fresh cell media was added for 30 minutes before stimulation with 100 ng/ml IL10, […] or 20 μM compound I-2 for 5 minutes. Cells were lysed with Protein Solubilization Buffer (PSB, 50 mM Hepes, pH 7.5, […], 10 mM Na Pyrophosphate, 2 mM NaVO4, 2 mM Na Molybdate, 2 mM EDTA) containing 1% octylglucoside, 0.01 M imidazole, and protease inhibitor cocktail (Roche Diagnostics, Laval, QC) for 30 minutes at 4° C. and centrifuged at 10000 rpm for 15 minutes. EDTA resistant Ni beads (Roche Diagnostics, Laval, QC) were added to supernatants and the mixture incubated at 4° C. for 1 hour before spinning down and washing of beads three times with 0.1% octylglucoside wash buffer in PSB. Bead samples and starting material cell lysates were separated on a 7.5% SDS-PAGE gel.
Immunoblotting. Protein lysates were separated on SDS-PAGE gels and transferred onto polyvinylidene fluoride (PVDF) membrane (Millipore, Etobicoke, ON). Membranes were blocked and probed, where appropriate, with the following primary antibodies overnight: SHIP1 (P1C1) (Santa Cruz Biotechnology), pSHIP1 (Y190) (Kinexus), STAT3 (9D8) (ThermoFisher Scientific), pSTAT3 (Y705) (Thermo Fisher Scientific), STAT1 (BD Transduction Laboratories), pSTAT1 (Y701) (Upstate Biotechnology), GAPDH and actin (Sigma-Aldrich). Membranes were developed with either Alexa Fluor® 660 anti-mouse IgG or Alexa Fluor® 680 anti-rabbit IgG antibodies (Thermo Fisher Scientific) and imaged using a LI-COR Odyssey Imager.

| Compound | mimicry of IL10 with respect to SHIP1 and STAT3 translocations ([1]; peritoneal macrophages) | association (co-precipitation) of SHIP1 and STAT3 [2] | membrane association of SHIP1 and STAT3 [1] | nuclear localization of SHIP1 and STAT3 [1] |
| --- | --- | --- | --- | --- |
| Cc1cc(O)cc2c1C1(C)CCC3C(C)(C)CCCC3(C)C1C2 (centres unmarked) [Compound I-1] | can mimic IL10 | could by itself induce formation of a SHIP1/STAT3 complex |  |  |
| CC12CCC3C(C)(C)C(N)CCC3(C)C1Cc1cc(O)cc(O)c12 (centres unmarked) [Compound I-2] |  | sufficient to induce association of SHIP1 and STAT3 | induced membrane association of both SHIP1 and STAT3 | both SHIP1 and STAT3 are found in the nucleus |
| IL10: anti-inflammatory cytokine interleukin-10 |  | resulted in co-precipitation of SHIP1 with STAT3 | induced membrane association of both SHIP1 and STAT3 | both SHIP1 and STAT3 are found in the nucleus |
